# Entries after “also recorded” stand apart in the source; their conditions may differ.
# Assays:
# HeLa cells [1] = assay: Cell death / survival (MTT assay) with IP6K2 overexpression; assay type: cell-based; conditions: HeLa cells transfected with IP6K2
# Source text: (§1) FIG. 5A. […] FIG. 5B. […] FIG. 5C. […] FIG. 5D. […] FIG. 5E.
# IP6K2 [2] = assay: Intracellular localization of IP6K2 (nuclei isolation, fluorescence microscopy); assay type: cell-based; conditions: for effect on nuclear vs cytosolic myc-IP6K2, nuclei isolation and densitometry: 60 μg total protein per lane, anti-myc blot; for effect on intracellular localization of IP6K2: drug-treated cells
# Procedure: FIG. 4A-4F. HSP90 regulates intracellular localization of IP6K2. FIG. 4A. […] Following drug treatment, nuclei were isolated from the rest of the cytoplasm. In each lane, 60 μg of total protein was loaded and the localization of IP6K2 assessed with an anti-myc antibody. Bands were analyzed by densitometry and changes in localization were calculated with the basal distribution of IP6K2 as a control. […] FIG. 4B. GFP-IP6K2 stably expressed in HEK 293 cells is distributed to a similar extent in cytosol and nucleus. Cells were stained with Hoechst stain for nucleus. FIG. 4C. Overexpression of pDSRed-HSP90 in HEK293 stably expressing GFP-IP6K2 retains IP6K2 completely in the cytosol. HSP90 also co-localizes well with IP6K2 as indicated by the yellow color of the merged picture. FIG. 4D. […] FIG. 4E. […] Cells overexpressing HSP90 (arrow a) display co-localization of IP6K2-HSP90 in the cytosol, whereas in cells lacking overexpressed HSP90 (arrow b), IP6K2 is nuclear. FIG. 4F. Effects of HSP90 depletion on intracellular localization of IP6K2. In HeLa, cells transiently expressed GFP-IP6K2 occurs diffusely throughout cells. Depletion of HSP90 by RNAi (depletion is 100% as shown in FIG. 6), leads to nuclear accumulation of IP6K2.
# Isolation of nuclei: Nuclei were separated from other cytoplasmic components using commercial kits (See ‘Reagents’ section). Preparation was checked each time by running appropriate controls for nucleus (p84).
# Fluorescence microscopy: HeLa cells were transfected with pEGFP+IP6K1/IP6K2/IP6K3, either alone or with pDsRed HSP90α with or without drug or siRNA treatment, fixed with ice cold methanol, stained with Hoechst stain for nucleus and observed under an Ultraview1 confocal microscope.
# HeLa cells [3] = assay: Cell death (% apoptotic nuclei) in IP6K2 siRNA depleted cells; assay type: cell-based; conditions: IP6K2 RNA interference (~40% less IP7 formation)
# Source text: as §1
# IP6K2 [4] = assay: IP7 measurement in vivo (IP6K activity as IP7/IP6 ratio in [3H]inositol labeled cells); conditions: HeLa cells with or without overexpression of IP6K2
# IP6K2-HSP90 binding [5] = molecular target: T1, IP6K2-HSP90 binding (Homo sapiens, UniProt Q9UHH9); assay: In vitro HSP90-IP6K2 binding assay with purified proteins; conditions: IP6K2 preincubated with increasing concentrations of IP6 15 min, then HSP90 1 h
# T1 construct: purified endogenous HSP90 (HeLa); made in house; host or cells: HSP90 purified from HeLa cells (endogenous); myc-IP6K2 immunoprecipitated from transfected HEK 293 cells
# T1 sequence (Q9UHH9 1-426): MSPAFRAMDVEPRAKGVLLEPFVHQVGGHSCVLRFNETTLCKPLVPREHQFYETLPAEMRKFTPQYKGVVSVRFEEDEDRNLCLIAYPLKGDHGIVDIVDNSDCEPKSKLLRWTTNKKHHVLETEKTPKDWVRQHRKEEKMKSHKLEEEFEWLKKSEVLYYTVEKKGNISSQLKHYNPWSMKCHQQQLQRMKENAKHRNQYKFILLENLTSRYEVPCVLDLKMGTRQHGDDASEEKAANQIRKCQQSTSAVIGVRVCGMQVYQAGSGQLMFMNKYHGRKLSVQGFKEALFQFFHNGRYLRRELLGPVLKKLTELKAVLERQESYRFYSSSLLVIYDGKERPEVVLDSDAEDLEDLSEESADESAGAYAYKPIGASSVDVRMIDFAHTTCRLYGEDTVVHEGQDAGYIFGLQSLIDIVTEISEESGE
# Source text: (§2) FIG. 3A, 3B, 3C. […] FIG. 3E.
# IP6K2-HSP90 binding [6] = molecular target: T2, IP6K2-HSP90 binding; assay: as above; design: species or system human; conditions: purified proteins; 250 nM HSP90 from HeLa preincubated with drug 30 min 37° C., then myc-IP6K2 beads; western blot; read-out: concentration reducing IP6K2-HSP90 binding by 50%
# T2 construct: other: purified proteins; 250 nM HSP90 from HeLa preincubated with d
# Source text: as §2
# IP6K2-HSP90 binding [7] = molecular target: IP6K2-HSP90 binding (Homo sapiens, UniProt P07900); assay: Co-immunoprecipitation of HSP90 with IP6K2 from drug-treated cells; assay type: cell-based; conditions: for effect on IP6K2-HSP90 binding, coimmunoprecipitation: HEK 293 cells; for effect on binding of HSP90 with IP6K2, coimmunoprecipitation: myc-IP6K2-transfected HeLa cells, CP 30 overnight, NB 500 μM overnight, ST 1 μM 6 h, AAG 1 μM overnight
# Procedure: as §2
# Cell culture: HeLa and HEK 293 were cultured as described (18). […] HEK293 and HeLa cells were transiently transfected using polyfect transfection reagent (Qiagen). siRNAs were transfected with ‘Hiperfect’ transfection reagent (Qiagen).
# Co-immunoprecipitation: Cells/mouse brain were homogenised in lysis buffer (20 mM Tris pH 7.4, 150 mM NaCl, 0.5% NP-40, and protease inhibitor cocktails). Equal amounts of protein were immunoprecipitated at 4° C. overnight using the protein A/G agarose beads in the presence of antibody. After immunoprecipitation, beads were washed four times with lysis buffer. Co-immunoprecipitates were resolved by SDS-PAGE and analysed by western blotting.
# HSP90 = HSP90 (Homo sapiens, UniProt P07900); assay: HSP90 binding to ATP-agarose beads; conditions: increasing concentrations, FIG. 7
# Source text: Beads were washed with wash buffer and run on 4-12% SDS-PAGE. Bound HSP90 was detected by western blotting with anti-HSP90 monoclonal antibody.
# HeLa cells [8] = conditions: reference 10; cited from earlier work
# IP6K2-HSP90 binding [9] = assay: In vitro HSP90-IP6K2 binding assay with purified proteins; design: species or system human; conditions: data not shown
# Source text: as §2
Molecule,change of drug's apoptotic action on IP6K2 overexpression (HeLa cells [1]),"effect on nuclear vs cytosolic myc-IP6K2, nuclei isolation and densitometry (IP6K2 [2])",effect on intracellular localization of IP6K2 (IP6K2 [2]),change of drug-elicited cell death in IP6K2 depleted cells (HeLa cells [3]),effect on IP6K2 activity / IP7 formation in cells (IP6K2 [4]),IC50 (IP6K2-HSP90 binding [6]) [µM],"effect on IP6K2-HSP90 binding, coimmunoprecipitation (IP6K2-HSP90 binding [7])","effect on binding of HSP90 with IP6K2, coimmunoprecipitation (IP6K2-HSP90 binding [7])",further results
"C=CCNC1=C2C[C@@H](C)C[C@H](OC)[C@H](O)[C@@H](C)/C=C(\C)[C@H](OC(N)=O)[C@@H](OC)/C=C\C=C(/C)C(=O)NC(=CC1=O)C2=O [AAG, 17-aminoallyl geldanamycin]",unaffected by IP6K2 overexpression,elicits the opposite effect,increases IP6K2 localization in the cytosol,unaffected by IP6K2 depletion,diminishes IP6K activity; also recorded: less IP7 formation,–,–,–,–
O=P(O)(O)O[C@H]1[C@H](OP(=O)(O)O)[C@@H](OP(=O)(O)O)[C@H](OP(=O)(O)O)[C@@H](OP(=O)(O)O)[C@H]1OP(=O)(O)O [IP6],–,–,–,–,–,–,–,–,effect of IP6 on in vitro binding of HSP90 to myc IP6K2 (IP6K2-HSP90 binding [5]): abolished
N.N.[Cl][Pt][Cl] [cisplatin],markedly enhanced by IP6K2 overexpression,–,enhance nuclear levels of IP6K2,reduced by almost half,augmented IP6K2 activity,1 to 5,diminish IP6K2-HSP90 binding,disrupt the binding of HSP90 with IP6K2,effect on IP6K2 activity / IP7 formation in cells (IP6K2 [4]; listed as CP): increase IP6K activity
CO[C@@H]1[C@@H](OC(N)=O)[C@@H](O)[C@H](Oc2ccc3c(O)c(NC(=O)c4ccc(O)c(CC=C(C)C)c4)c(=O)oc3c2C)OC1(C)C [novobiocin],markedly enhanced by IP6K2 overexpression,increases nuclear and decreases cytosolic IP6K2,enhance nuclear levels of IP6K2,reduced by almost half,augmented IP6K2 activity,~200,–,–,effect on IP6K2 activity / IP7 formation in cells (IP6K2 [4]; listed as NB): increase IP6K activity
CN[C@@H]1C[C@H]2O[C@@](C)([C@@H]1OC)n1c3ccccc3c3c4c(c5c6ccccc6n2c5c31)C(=O)NC4 [staurosporine],markedly enhanced by IP6K2 overexpression,–,elicits mitochondrial translocation of IP6K2,–,augmented IP6K2 activity,–,diminish IP6K2-HSP90 binding,disrupt the binding of HSP90 with IP6K2,"effect on HSP90 binding to ATP-agarose beads (HSP90): inhibits binding of HSP90 to ATP-agarose beads in a concentration dependent manner; change of drug's apoptotic effects on IP6K2 depletion, previously reported (HeLa cells [8]): IP6K2 depletion prevents the apoptotic effects; effect on IP6K2 activity / IP7 formation in cells (IP6K2 [4]; listed as ST): increase IP6K activity"
p23: a co-chaperone which binds HSP90 with high affinity,–,–,–,–,–,–,–,–,"effect of p23 on in vitro IP6K2-HSP90 binding (IP6K2-HSP90 binding [9]): only influences in vitro IP6K2-HSP90 binding at a high molar ratio (1:20); effect of p23 on IP6K2-HSP90 coprecipitation (IP6K2-HSP90 binding [7]; HeLa cells, data not shown): does not affect their coprecipitation in HeLa cells"

# Reference: US8080367B2, “Regulation of cell survival by HSP90 and IP6K2” (The Johns Hopkins University, priority 2006, dated 2011)
